System: RS4;11 cells
Assay: RS4;11 cell viability assay (CellTiter Glo);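 note: acute lymphoblastic leukemia line RS4,11, EC50 derived from percentage of viable cells after treatment relative to untreated controls, cell killing taken as a measure of Bcl-2 inhibition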
Assay type: cell-based, human
Settings: Homo sapiens, RS4-11, 48 h, 50,000 cells per well, 10% human serum, 48 hours; read-out: RS4; 11 EC50 Values
Procedure: The acute lymphoblastic leukemia (ALL) cell line RS4;11 was used as the primary human cell line to assess the cellular activity of Bcl-2 selective agents in vitro and their efficacy in vivo.
Cell cytotoxicity EC50 values were assessed using CellTiter Glo (Promega) according to the manufacturer's recommendations. The EC50 values were determined as a percentage of viable cells following treatment compared to the untreated control cells.

Structure (SMILES) | EC50 [nM]
CN(C)CC(=O)N1CCOC(CNc2ccc(S(=O)(=O)NC(=O)c3ccc(N4CCN(CC5=C(c6ccc(Cl)cc6)CC(C)(C)CC5)CC4)cc3Oc3cnc4[nH]ccc4c3)cc2[N+](=O)[O-])C1 (stereo not drawn) [Example 215, 4-(4-{[2-(4-chlorophenyl)-4,4-dimethylcyclohex-1-en-1-yl]methyl}piperazin-1-yl)-N-{[4-({[4-(N,N-dimethylglycyl)morpholin-2-yl]methyl}amino)-3-nitrophenyl]sulfonyl}-2-(1H-pyrrolo[2,3-b]pyridin-5-yloxy)benzamide] | 0.56
CC1(C)CCC(CN2CCN(c3ccc(C(=O)NS(=O)(=O)c4ccc(NCC5CN(CC(=O)O)CCO5)c([N+](=O)[O-])c4)c(Oc4cnc5[nH]ccc5c4)c3)CC2)=C(c2ccc(Cl)cc2)C1 (stereo not drawn) [Example 216, (2-{[(4-{[4-(4-{[2-(4-chlorophenyl)-4,4-dimethylcyclohex-1-en-1-yl]methyl}piperazin-1-yl)-2-(1H-pyrrolo[2,3-b]pyridin-5-yloxy)benzoyl]sulfamoyl}-2-nitrophenyl)amino]methyl}morpholin-4-yl)acetic acid] | 683
CC1(C)CCC(CN2CCN(c3ccc(C(=O)NS(=O)(=O)c4ccc(NCC5CN(C6COC6)CCO5)c([N+](=O)[O-])c4)c(Oc4cnc5[nH]ccc5c4)c3)CC2)=C(c2ccc(Cl)cc2)C1 (stereo not drawn) [Example 217, 4-(4-{[2-(4-chlorophenyl)-4,4-dimethylcyclohex-1-en-1-yl]methyl}piperazin-1-yl)-N-{[3-nitro-4-({[4-(oxetan-3-yl)morpholin-2-yl]methyl}amino)phenyl]sulfonyl}-2-(1H-pyrrolo[2,3-b]pyridin-5-yloxy)benzamide] | 1.55
CC1(C)CCC(CN2CCN(c3ccc(C(=O)NS(=O)(=O)c4ccc(NCC5CN(C6CC6)CCO5)c([N+](=O)[O-])c4)c(Oc4cnc5[nH]ccc5c4)c3)CC2)=C(c2ccc(Cl)cc2)C1 (stereo not drawn) [Example 218, 4-(4-{[2-(4-chlorophenyl)-4,4-dimethylcyclohex-1-en-1-yl]methyl}piperazin-1-yl)-N-[(4-{[(4-cyclopropylmorpholin-2-yl)methyl]amino}-3-nitrophenyl)sulfonyl]-2-(1H-pyrrolo[2,3-b]pyridin-5-yloxy)benzamide] | 7.29
CC1(C)CCC(CN2CCN(c3ccc(C(=O)NS(=O)(=O)c4cnc(OCC5CCOCC5)c(S(C)(=O)=O)c4)c(Oc4cnc5[nH]ccc5c4)c3)CC2)=C(c2ccc(Cl)cc2)C1 [Example 219, 4-(4-{[2-(4-chlorophenyl)-4,4-dimethylcyclohex-1-en-1-yl]methyl}piperazin-1-yl)-N-{[5-(methylsulfonyl)-6-(tetrahydro-2H-pyran-4-ylmethoxy)pyridin-3-yl]sulfonyl}-2-(1H-pyrrolo[2,3-b]pyridin-5-yloxy)benzamide] | > 1000
CC1(C)CCC(CN2CCN(c3ccc(C(=O)NS(=O)(=O)c4ccc(OCC5(F)CCOCC5)c(S(=O)(=O)C(F)(F)F)c4)c(Oc4cnc5[nH]ccc5c4)c3)CC2)=C(c2ccc(Cl)cc2)C1 [Example 220, 4-(4-{[2-(4-chlorophenyl)-4,4-dimethylcyclohex-1-en-1-yl]methyl}piperazin-1-yl)-N-({4-[(4-fluorotetrahydro-2H-pyran-4-yl)methoxy]-3-[(trifluoromethyl)sulfonyl]phenyl}sulfonyl)-2-(1H-pyrrolo[2,3-b]pyridin-5-yloxy)benzamide] | > 1000
CC1(C)CCC(CN2CCN(c3ccc(C(=O)NS(=O)(=O)c4ccc(OCC5(C)CCOCC5)c([N+](=O)[O-])c4)c(Oc4cnc5[nH]ccc5c4)c3)CC2)=C(c2ccc(Cl)cc2)C1 [Example 221, 4-(4-{[2-(4-chlorophenyl)-4,4-dimethylcyclohex-1-en-1-yl]methyl}piperazin-1-yl)-N-({4-[(4-methyltetrahydro-2H-pyran-4-yl)methoxy]-3-nitrophenyl}sulfonyl)-2-(1H-pyrrolo[2,3-b]pyridin-5-yloxy)benzamide] | 94.8
CCOC(=O)N1CCN(c2ccc(S(=O)(=O)NC(=O)c3ccc(N4CCN(CC5=C(c6ccc(Cl)cc6)CC(C)(C)CC5)CC4)cc3Oc3cnc4[nH]ccc4c3)cc2[N+](=O)[O-])CC1 [Example 222, ethyl 4-(4-{[4-(4-{[2-(4-chlorophenyl)-4,4-dimethylcyclohex-1-en-1-yl]methyl}piperazin-1-yl)-2-(1H-pyrrolo[2,3-b]pyridin-5-yloxy)benzoyl]sulfamoyl}-2-nitrophenyl)piperazine-1-carboxylate] | > 1000
CC1(C)CCC(CN2CCN(c3ccc(C(=O)NS(=O)(=O)c4ccc(N5CCC(N6CCOCC6)CC5)c([N+](=O)[O-])c4)c(Oc4cnc5[nH]ccc5c4)c3)CC2)=C(c2ccc(Cl)cc2)C1 [Example 223, 4-(4-{[2-(4-chlorophenyl)-4,4-dimethylcyclohex-1-en-1-yl]methyl}piperazin-1-yl)-N-({4-[4-(morpholin-4-yl)piperidin-1-yl]-3-nitrophenyl}sulfonyl)-2-(1H-pyrrolo[2,3-b]pyridin-5-yloxy)benzamide] | 182
CC1(C)CCC(CN2CCN(c3ccc(C(=O)NS(=O)(=O)c4ccc(N[C@@H]5CCN(C6COC6)C5)c([N+](=O)[O-])c4)c(Oc4cnc5[nH]ccc5c4)c3)CC2)=C(c2ccc(Cl)cc2)C1 [Example 224, 4-(4-{[2-(4-chlorophenyl)-4,4-dimethylcyclohex-1-en-1-yl]methyl}piperazin-1-yl)-N-[(3-nitro-4-{[(3R)-1-(oxetan-3-yl)pyrrolidin-3-yl]amino}phenyl)sulfonyl]-2-(1H-pyrrolo[2,3-b]pyridin-5-yloxy)benzamide] | 13.9
CC1(C)CCC(CN2CCN(c3ccc(C(=O)NS(=O)(=O)c4ccc(N[C@@H]5CCN(C(CF)CF)C5)c(S(=O)(=O)C(F)(F)F)c4)c(Oc4cnc5[nH]ccc5c4)c3)CC2)=C(c2ccc(Cl)cc2)C1 [Example 225, 4-(4-{[2-(4-chlorophenyl)-4,4-dimethylcyclohex-1-en-1-yl]methyl}piperazin-1-yl)-N-[(4-{[(3R)-1-(1,3-difluoropropan-2-yl)pyrrolidin-3-yl]amino}-3-[(trifluoromethyl)sulfonyl]phenyl)sulfonyl]-2-(1H-pyrrolo[2,3-b]pyridin-5-yloxy)benzamide] | 560
CC(C)N1CCC(Nc2ccc(S(=O)(=O)NC(=O)c3ccc(N4CCN(CC5=C(c6ccc(Cl)cc6)CC(C)(C)CC5)CC4)cc3Oc3cnc4[nH]ccc4c3)cc2[N+](=O)[O-])CC1 [Example 226, 4-(4-{[2-(4-chlorophenyl)-4,4-dimethylcyclohex-1-en-1-yl]methyl}piperazin-1-yl)-N-({4-[(1-isopropylpiperidin-4-yl)amino]-3-nitrophenyl}sulfonyl)-2-(1H-pyrrolo[2,3-b]pyridin-5-yloxy)benzamide] | 118
CC1(C)CCC(CN2CCN(c3ccc(C(=O)NS(=O)(=O)c4ccc(NC5CCN(C(C)(C)C)CC5)c([N+](=O)[O-])c4)c(Oc4cnc5[nH]ccc5c4)c3)CC2)=C(c2ccc(Cl)cc2)C1 [Example 227, N-({4-[(1-tert-butylpiperidin-4-yl)amino]-3-nitrophenyl}sulfonyl)-4-(4-{[2-(4-chlorophenyl)-4,4-dimethylcyclohex-1-en-1-yl]methyl}piperazin-1-yl)-2-(1H-pyrrolo[2,3-b]pyridin-5-yloxy)benzamide] | 7.36
COCCN1CCCC(CNc2ccc(S(=O)(=O)NC(=O)c3ccc(N4CCN(CC5=C(c6ccc(Cl)cc6)CC(C)(C)CC5)CC4)cc3Oc3cnc4[nH]ccc4c3)cc2[N+](=O)[O-])C1 (stereo not drawn) [Example 228, 4-(4-{[2-(4-chlorophenyl)-4,4-dimethylcyclohex-1-en-1-yl]methyl}piperazin-1-yl)-N-{[4-({[1-(2-methoxyethyl)piperidin-3-yl]methyl}amino)-3-nitrophenyl]sulfonyl}-2-(1H-pyrrolo[2,3-b]pyridin-5-yloxy)benzamide] | > 1000
CC1(C)CCC(CN2CCN(c3ccc(C(=O)NS(=O)(=O)c4ccc(NCC5CCCN(CC#N)C5)c([N+](=O)[O-])c4)c(Oc4cnc5[nH]ccc5c4)c3)CC2)=C(c2ccc(Cl)cc2)C1 (stereo not drawn) [Example 229, 4-(4-{[2-(4-chlorophenyl)-4,4-dimethylcyclohex-1-en-1-yl]methyl}piperazin-1-yl)-N-{[4-({[1-(cyanomethyl)piperidin-3-yl]methyl}amino)-3-nitrophenyl]sulfonyl}-2-(1H-pyrrolo[2,3-b]pyridin-5-yloxy)benzamide] | > 1000
CN1CCC(F)(COc2ccc(S(=O)(=O)NC(=O)c3ccc(N4CCN(CC5=C(c6ccc(Cl)cc6)CC(C)(C)CC5)CC4)cc3Oc3cnc4[nH]ccc4c3)cc2S(=O)(=O)C(F)(F)F)CC1 [Example 230, 4-(4-{[2-(4-chlorophenyl)-4,4-dimethylcyclohex-1-en-1-yl]methyl}piperazin-1-yl)-N-({4-[(4-fluoro-1-methylpiperidin-4-yl)methoxy]-3-[(trifluoromethyl)sulfonyl]phenyl}sulfonyl)-2-(1H-pyrrolo[2,3-b]pyridin-5-yloxy)benzamide] | 52.8
CC1(C)CCC(CN2CCN(c3ccc(C(=O)NS(=O)(=O)c4cnc(N[C@@H]5CCN(C(CF)CF)C5)c(Cl)c4)c(Oc4cnc5[nH]ccc5c4)c3)CC2)=C(c2ccc(Cl)cc2)C1 [Example 231, N-[(5-chloro-6-{[(3R)-1-(1,3-difluoropropan-2-yl)pyrrolidin-3-yl]amino}pyridin-3-yl)sulfonyl]-4-(4-{[2-(4-chlorophenyl)-4,4-dimethylcyclohex-1-en-1-yl]methyl}piperazin-1-yl)-2-(1H-pyrrolo[2,3-b]pyridin-5-yloxy)benzamide] | 523
CC1(C)CCC(CN2CCN(c3ccc(C(=O)NS(=O)(=O)c4ccc(NN5CCN(C(=O)OC(C)(C)C)CC5)c([N+](=O)[O-])c4)c(Oc4cnc5[nH]ccc5c4)c3)CC2)=C(c2ccc(Cl)cc2)C1 [Example 232, tert-butyl 4-[(4-{[4-(4-{[2-(4-chlorophenyl)-4,4-dimethylcyclohex-1-en-1-yl]methyl}piperazin-1-yl)-2-(1H-pyrrolo[2,3-b]pyridin-5-yloxy)benzoyl]sulfamoyl}-2-nitrophenyl)amino]piperazine-1-carboxylate] | > 1000

Reference: US20240043404A1 (AbbVie Inc., priority 2009, published 2024)
